Values after ≈ are worked out from the molar mass of the structure shown. Where two headings read alike, the source gives them in different places.
Key:
[1] = test system: methicillin-resistant Staphylococcus aureus (MRSA); test: Growth inhibition assay, minimum inhibitory concentration against MRSA; assay type: cell-based; details: for MIC: Staphylococcus aureus
Protocol: (§1) Growth Inhibition Assays. Compounds were prepared in DMSO to a concentration of 10 mM. DMSO was used as a vehicle negative control, and vancomycin (MRSA) and ampicillin (VRE) were also prepared as positive controls for minimum inhibitory concentration (MIC) tests. Compounds were tested for antimicrobial activity against MRSA and VRE at 100, 50, 25, 12.5, 6.25, 3.13, 1.56, 0.78, and 0.39 μM. MRSA was grown in tryptic soy broth and VRE was grown in brain heart infusion medium. Overnight cultures of bacteria were diluted to OD600=0.1 and 50 μL of cell culture broth was added to each well. Media (50 μL) containing compound at the appropriate concentration was then added to the cell cultures and the plates were sealed and incubated at 37° C. overnight. Plates were then read for OD600 using a PerkinElmer Envision 2100 multimode plate reader (PerkinElmer, Waltham, MA, USA). […] All samples were tested in triplicate.
(§2) Determination of Minimum Inhibitory Concentration. All compounds were freshly dissolved in DMSO at a stock solution of 10 mM. DMSO (solvent vehicle) was used as a negative control and vancomycin and ampicillin were used as positive controls for MRSA and VRE, respectively. Compounds were dispensed into 96-well plates at 100, 50, 25, 12.5, 6.25, 3.13, 1.56, 0.78, and 0.39 μM. Overnight cultures of MRSA grown in tryptic soy broth and VRE grown in brain heart infusion medium were diluted to OD600 of 0.1, and 50 μL of fresh cell culture broth was added to each well. The plates were sealed and incubated at 37° C. overnight. Plates were then monitored for OD600 using a PerkinElmer Envision 2100 multimode plate reader (PerkinElmer, Waltham, MA, USA).

[2] = test system: vancomycin-resistant Enterococcus faecalis (VRE); test: Growth inhibition assay, minimum inhibitory concentration against VRE; assay type: cell-based
Protocol: as §1, §2

[3] = test system: MRSA; test: Lipid II supplementation rescue of MRSA growth; assay type: cell-based, Staphylococcus aureus; details: lethal concentrations of antibiotic, with lipid II in the media
Source text: (§3) FIGS. 21A-21D show (FIG. 21A) SYTOX Green fluorescence assay for antibiotic-induced bacterial membrane permeability. Vancomycin was used as a negative control, and daptomycin was used as a positive control. Error bars represent the standard error of the mean across 3 biological replicates. […] Vancomycin was used as a positive control. The UDP-MurNAc-pentapeptide was identified by mass spectrometry, with an [M+H]^+ of 1150.3590. Error bars represent the standard deviation of three biological replicates. […] Lipid II cannot rescue bacteria grown in the presence of ciprofloxacin (an inhibitor of DNA replication). Data from three biological replicates are shown. […] Vancomycin was used as a positive control. Lipid II was boiled to remove the lipid tail, and de-lipidated lipid II was quantified by mass spectrometry, with an [M+H]^+ of 1331.5362. Error bars represent the standard deviation of three biological replicates.
Lipid II is a crucial peptidoglycan building block downstream of UDP-MurNAc-pentapeptide and is the target of several antibiotics, including vancomycin. Bacteria were grown in the presence of lethal concentrations of antibiotics with and without supplementation of lipid II into the media. […] These lipids are the targets of numerous antibiotics. Compounds that bind to lipid II are known to result in its accumulation in cells, while compounds that bind to C55-P or C55-PP result in a reduction in lipid II levels. […] The lipid tail of lipid II can be removed by boiling in acidic conditions, allowing quantification by LC-MS. Following this protocol, an accumulation of a mass matching de-lipidated lipid II when bacteria were treated with either compounds of Formula I or vancomycin (FIG. 21D) was observed. The identity of this molecule was confirmed by tandem mass spectrometry and compared to published fragmentation data. Without being bound by theory, it is believed that compounds of Formula I target the bacterial cell wall by binding to lipid II and preventing its polymerization and cross-linking into peptidoglycan.

[4] = test system: lipid II in MRSA; test: Accumulation of lipid II in MRSA, LC-MS of de-lipidated lipid II; assay type: cell-based, Staphylococcus aureus; details: compared to DMSO
Source text: as §3
Lipid II is a crucial peptidoglycan building block downstream of UDP-MurNAc-pentapeptide and is the target of several antibiotics, including vancomycin. Bacteria were grown in the presence of lethal concentrations of antibiotics with and without supplementation of lipid II into the media. […] These lipids are the targets of numerous antibiotics. […] The lipid tail of lipid II can be removed by boiling in acidic conditions, allowing quantification by LC-MS. […]

[5] = test system: UDP-MurNAc-pentapeptide in MRSA; test: Accumulation of cell wall precursor UDP-MurNAc-pentapeptide in MRSA; assay type: cell-based, Staphylococcus aureus; details: compared to DMSO
Source text: (§4) FIGS. 21A-21D show (FIG. 21A) SYTOX Green fluorescence assay for antibiotic-induced bacterial membrane permeability. Vancomycin was used as a negative control, and daptomycin was used as a positive control. Error bars represent the standard error of the mean across 3 biological replicates. […] Vancomycin was used as a positive control. […] Error bars represent the standard deviation of three biological replicates. […] Data from three biological replicates are shown. […] Vancomycin was used as a positive control. […] Error bars represent the standard deviation of three biological replicates.
(§5) The effects of compounds of Formula I on the bacterial cell wall were thus investigated. […] The effects of compounds of Formula I on cell wall biosynthesis was investigated by looking for accumulation of the cell wall precursor molecule UDP-MurNAc-pentapeptide (FIG. 21B).

[6] = test system: MRSA; details: after 30 days, identical conditions
Source text: Fold change in MIC for one culture grown in the presence of sub-inhibitory levels of ciprofloxacin for 30 days is shown as a positive control.
An attempt to culture MRSA mutants resistant to compounds of Formula I was made by subculturing two independent cultures of bacteria continuously in the presence of non-lethal concentrations of 5.

[7] = test system: MRSA; test: SYTOX Green fluorescence assay for bacterial membrane permeability; assay type: cell-based, Staphylococcus aureus
Source text: as §4, §5

[8] = Table 6, read-out: Minimal inhibitory concentrations, S. aureus (methicillin resistant)
[9] = Enterococcus faecalis, Table 6, read-out: Minimal inhibitory concentrations, E. faecalis (vancomycin resistant)

Row | Compound | antibiotic activity against MRSA (in words) [1] | MIC [1, 8] [µM] | antibiotic activity against VRE (in words) [2] | MIC [2, 9] [µM] | also measured
1 | O=C1C=C(O)C(=O)C(/C=C/c2ccccc2)=C1c1c(O)cc(O)cc1/C=C/c1ccccc1 [compound 8, duotap-436] | significantly enhanced antibiotic activity compared to 6 | 4 (≈ 1.75 µg/mL) | significantly enhanced antibiotic activity compared to 6 | 6 (≈ 2.62 µg/mL) | activity against VRE [2]: 6 µg/mL
2 | CC(C)c1c(O)cc(/C=C/c2ccccc2)cc1O [compound 1, tapinarof, reference compound] | – | 27 (≈ 6.87 µg/mL) | – | 51 (≈ 13 µg/mL) | MIC ([1]; read-out: MIC): 27 µM (≈ 6.87 µg/mL); MIC ([2]; read-out: MIC): 50.5 µM (≈ 12.8 µg/mL)
3 | CC(C)C1=C(O)C(=O)C(/C=C/c2ccccc2)=C(c2c(/C=C/c3ccccc3)cc(O)c(C(C)C)c2O)C1=O [compound 5, duotap-520] | – | – | – | – | restoration of MRSA growth by lipid II supplementation [3]: restore growth; accumulation of lipid II (de-lipidated lipid II) [4]: Accumulation; level of UDP-MurNAc-pentapeptide [5]: Accumulation
4 | lumiquinone A [compound 3, reference compound] | little to no activity | – | little to no activity | – | –
5 | CC(C)c1c(O)cc(C2OC2c2ccccc2)cc1O (stereo not drawn) [compound 2, stilbene epoxide, reference compound] | little to no activity | – | little to no activity | – | –
6 | CN[C@H](CC(C)C)C(=O)N[C@H]1C(=O)N[C@@H](CC(N)=O)C(=O)N[C@H]2C(=O)N[C@H]3C(=O)N[C@H](C(=O)N[C@H](C(=O)O)c4cc(O)cc(O)c4-c4cc3ccc4O)[C@H](O)c3ccc(c(Cl)c3)Oc3cc2cc(c3O[C@@H]2O[C@H](CO)[C@@H](O)[C@H](O)[C@H]2O[C@H]2C[C@](C)(N)[C@H](O)[C@H](C)O2)Oc2ccc(cc2Cl)[C@H]1O [vancomycin, reference compound] | – | – | – | – | restoration of MRSA growth by lipid II supplementation [3]: restored MRSA growth to antibiotic-free levels; accumulation of lipid II (de-lipidated lipid II) [4]: accumulation; level of UDP-MurNAc-pentapeptide [5]: significant increase
7 | O=C(O)c1cn(C2CC2)c2cc(N3CCNCC3)c(F)cc2c1=O [ciprofloxacin] | – | – | – | – | restoration of MRSA growth by lipid II supplementation [3]: not able to rescue bacterial growth; increase in MIC [6]: approximately 37 fold
8 | O=C1C=C(O)C(=O)C(/C=C/c2ccc(O)cc2)=C1c1c(O)cc(O)cc1/C=C/c1ccc(O)cc1 [compound 9, duotap-468] | no enhancement of activity | > 100 | no enhancement of activity | > 100 | –
9 | Oc1cc(O)cc(/C=C/c2ccccc2)c1 [compound 6, pinosylvin, reference compound] | – | > 100 | – | > 100 | –
10 | CCCCCCCCCC(=O)N[C@@H](Cc1c[nH]c2ccccc12)C(=O)N[C@H](CC(N)=O)C(=O)N[C@@H](CC(=O)O)C(=O)N[C@@H]1C(=O)NCC(=O)N[C@@H](CCCN)C(=O)N[C@@H](CC(=O)O)C(=O)N[C@H](C)C(=O)N[C@@H](CC(=O)O)C(=O)NCC(=O)N[C@H](CO)C(=O)N[C@@H]([C@H](C)CC(=O)O)C(=O)N[C@@H](CC(=O)c2ccccc2N)C(=O)O[C@@H]1C [daptomycin] | – | – | – | – | membrane permeability [7]: increase in membrane permeability
11 | Oc1ccc(C=Cc2cc(O)cc(O)c2)cc1 [compound 7, resveratrol, reference compound] | – | 25 (≈ 5.71 µg/mL) | – | 14 (≈ 3.2 µg/mL) | –
